Laboratory results published in ChEMBL document CHEMBL3301361, “Experimental in vitro DMPK and physicochemical data on a set of publicly disclosed compounds”.
Values after ≈ are worked out from the molar mass of the structure shown.

Experiments:
in vitro [1] = conditions: SD, HW or BN, rat, plasma
in vitro [2] = conditions: human, plasma
in vitro [3] = conditions: mouse, plasma
physchem [4] = conditions: octan-1-ol/water, pH 7.4, LogD7.4
physchem [5] = conditions: pH 7.4 buffer

| Structure (SMILES) | fraction unbound at 5 h (in vitro [1]) | fraction unbound at 5 h (in vitro [2]; PPB) | fraction unbound at 5 h (in vitro [3]) | fraction unbound at 5 h (in vitro [2]) | logD (physchem [4]) | solubility thermodynamic (physchem [5]) |
| --- | --- | --- | --- | --- | --- | --- |
| Cc1nccn1-c1sc(Nc2cnccn2)nc1-c1cccc(C#N)c1 | 0.0437 | 0.0437 | 0.0335 | – | – | – |
| CCCCCCC(=O)CCCCCC/C=C/C[C@@H](O)[C@H](O)[C@@](N)(CO)C(=O)O [MYRIOCIN] | 0.028 | – | 0.062 | – | – | – |
| COc1ccc(S(=O)(=O)N2CC(C)N(S(=O)(=O)c3ccc(OC)cc3)CC2C)cc1 (configuration not stated) | 0.0139 | – | 0.0179 | 0.0035 | – | – |
| CCOc1cc(CN2CCC(Nc3nc4cc(S(N)(=O)=O)ccc4o3)CC2)cc(OCC)c1N | 0.11 | 0.299 | 0.0928 | – | – | – |
| CC(C)Cc1c(C(=O)C(N)=O)c2c(OCC(=O)O)cccc2n1Cc1ccccc1 | 0.0187 | – | 0.0366 | 0.0313 | – | – |
| O=C(CC1CCN(Cc2ccn(-c3ccc(C(F)(F)F)cc3)c2)CC1)NC(c1ccncc1)c1ccc(Cl)cc1 (configuration not stated) | – | 0.013 | 0.0051 | – | – | – |
| O=C(Nc1ccc(CN2CCNCC2)cc1-c1nc2ccccc2[nH]1)c1cnc2ccccc2n1 | 0.0801 | 0.0009 | 0.0033 | – | – | – |
| CCC(CC)[C@@H](CO)NS(=O)(=O)c1ccc(Cl)s1 [GSI-136] | 0.0909 | – | 0.11 | – | – | – |
| N#Cc1c(-c2ccc(-c3ccccc3Cl)cc2)nc2ccncc2c1O | – | 0.0008 | 0.0022 | – | – | – |
| O=C1CCc2cc(-c3cncc4ccccc34)ccc2N1 | 0.0313 | 0.0358 | 0.0313 | – | – | – |
| c1ccc2nc(COc3ccc(-c4n[nH]cc4-c4ccncc4)cc3)ccc2c1 | 0.0018 | – | 0.0013 | – | – | – |
| Cc1cnc(C(=O)c2ncnc3[nH]ccc23)c(NS(=O)(=O)c2ccc(Cl)c(C(F)(F)F)c2)c1 [ILACIRNON] | 0.0021 | 0.0009 | 0.0069 | – | – | – |
| c1cncc(Nc2ncc(-c3ccncn3)c(-c3ccco3)n2)c1 | 0.139 | 0.139 | 0.16 | – | – | – |
| O=c1[nH]c2cc(C(F)(F)F)ccc2n1-c1cc(C(F)(F)F)ccc1O | 0.0011 | – | 0.0021 | – | – | – |
| O=C1N(c2ccccc2)c2ccccc2C1(Cc1ccncc1)Cc1ccncc1 [LINOPIRDINE] | 0.101 | 0.004 | 0.179 | – | – | – |
| CC#Cc1cncc(-c2cccc(C3(c4cc(C)c(OC)c(C)c4)N=C(C)C(N)=N3)c2)c1 (configuration not stated) | – | 0.002 | 0.006 | – | – | – |
| CC(O)(C(=O)Nc1cccc(S(=O)(=O)c2ccccc2)c1)C(F)(F)F (configuration not stated) | 0.0594 | 0.0909 | 0.0661 | – | – | – |
| C/C=C/c1ccc(Oc2nnnn2-c2ccc(C(N)=O)cc2)c(OC)c1 | – | – | 0.0428 | 0.0268 | – | – |
| COc1cc(Nc2nc3c(c(COC4CCCC4)n2)COCC3)ccc1-n1cnc(C)c1 | 0.0205 | – | 0.0149 | – | – | – |
| CC#Cc1cncc(-c2csc([C@]3(C)CC(=O)N(C)C(N)=N3)c2)c1 | – | 0.119 | 0.17 | – | – | – |
| Cc1cc(C)c(S(=O)(=O)NCc2ccncc2)c(C)c1 | 0.139 | 0.139 | 0.151 | – | – | – |

| Structure (SMILES) | fraction unbound at 5 h (in vitro [1]) | fraction unbound at 5 h (in vitro [2]; PPB) | fraction unbound at 5 h (in vitro [3]) | fraction unbound at 5 h (in vitro [2]) | logD (physchem [4]) | solubility thermodynamic (physchem [5]) |
| --- | --- | --- | --- | --- | --- | --- |
| CC1=C(C(=O)OCc2ccccc2)C(c2cccs2)NC(=O)N1 (configuration not stated) | 0.0171 | 0.0268 | 0.03 | – | – | – |
| COc1cc(C(C)C)c(Oc2cnc(NC(CO)CO)nc2N)cc1I | 0.028 | – | 0.0581 | – | – | – |
| CCCN(c1cccc(C#N)c1)P(=O)(c1ccccc1)c1ccccc1 | 0.0633 | – | 0.0467 | 0.0056 | – | – |
| Cn1cc(-c2ccncc2)c(-c2ccc(OCc3ccc4ccccc4n3)cc2)n1 [MARDEPODECT] | 0.0017 | – | 0.0039 | – | – | – |
| CCNc1cc(C(=O)N[C@@H](Cc2ccccc2)[C@H](O)CNCc2cccc(C(F)(F)F)c2)c(F)c(N2CCCCS2(=O)=O)c1 | – | 0.0119 | 0.016 | – | – | – |
| COc1cc(Nc2nc3c(c(Cc4ccccc4)n2)CN(CCO)CC3)ccc1-n1cnc(C)c1 | – | 0.0191 | 0.02 | – | – | – |
| NC(=O)c1ccc(-n2nnnc2Oc2ccc(Br)cc2)cc1 | 0.0872 | – | 0.0854 | – | – | – |
| O=C(Nc1ccc(Cl)c(C(=O)Nc2cccnc2)c1)c1cccc(C(F)(F)F)c1 | – | 0.003 | 0.0119 | – | – | – |
| CCOc1cc2c(c(F)c1OCC)C(=N)N(CC(=O)c1cc(N3CCOCC3)c(OC)c(C(C)(C)C)c1)C2 [ATOPAXAR] | – | 0.0021 | 0.0025 | – | – | – |
| CC(C)NC[C@@H](O)COc1cccc2ccccc12 [DEXPROPRANOLOL] | 0.179 | – | 0.179 | 0.176 | – | – |
| CC(C)S(=O)(=O)N(C)c1cc(C(=O)N[C@@H](Cc2ccccc2)[C@@H](N)CF)cc(NC[C@H]2C[C@@H]2C)n1 | – | 0.0447 | 0.0191 | – | – | – |
| CN1C(=N)N[C@](C)(c2cc(-c3cccc(C#N)c3)cs2)CC1=O | – | 0.0836 | 0.249 | – | – | – |
| N#CCOc1ccccc1-c1ccc(-c2nc3ccncc3c(O)c2C#N)cc1 | – | 0.0011 | 0.0149 | – | – | – |
| COC(=O)N[C@@H](C)C#Cc1cnc(Oc2ccc(OC(C)C)cc2)s1 | 0.0051 | 0.0034 | 0.0099 | – | – | – |
| C1Cc2[nH]nc(-c3nnn[nH]3)c2C1 | 0.072 | – | 0.371 | – | – | – |
| CC(C)NC(=O)c1nn(-c2ccc(Cl)cc2)c(=O)c2c(N)scc12 | – | 0.0099 | 0.0219 | – | – | – |
| COc1ccc(Cl)cc1C1(F)C(=O)Nc2cc(C(F)(F)F)ccc21 (configuration not stated) | 0.0015 | 0.0017 | 0.0019 | – | – | – |
| Nc1scc2c(C(=O)NC3CC3)nn(-c3ccc(Cl)cc3)c(=O)c12 | – | 0.0179 | 0.0321 | – | – | – |
| Cn1c(-c2cccc(F)c2)nc2c(N)nc(C#CC3(O)CCCC3)nc21 | – | 0.119 | 0.0752 | – | – | – |
| COc1ccc(C2(c3ccc(F)c(-c4cccnc4F)c3)N=C(N)N(C)C2=O)cc1C (configuration not stated) | 0.0099 | – | 0.0081 | – | – | – |
| CN(C)CCC1CCN(c2cc(C(=O)NC[C@H]3CC[C@H](CNC(=O)OCC(C)(C)C)CC3)c3ccccc3n2)CC1 | 0.0133 | 0.0139 | 0.0039 | – | – | – |

| Structure (SMILES) | fraction unbound at 5 h (in vitro [1]) | fraction unbound at 5 h (in vitro [2]; PPB) | fraction unbound at 5 h (in vitro [3]) | fraction unbound at 5 h (in vitro [2]) | logD (physchem [4]) | solubility thermodynamic (physchem [5]) |
| --- | --- | --- | --- | --- | --- | --- |
| Fc1ccc(-c2c[nH]c(C3CCN(Cc4ccn(-c5ccc(C(F)(F)F)cc5)c4)CC3)n2)cc1 | – | 0.0009 | 0.0023 | – | – | – |
| Cc1cc(-c2ccc(-c3nc4ccncc4c(O)c3C#N)cc2)ccn1 | – | 0.0041 | 0.013 | – | 1.6 | – |
| CC(O)(C(=O)Nc1ccc(S(=O)(=O)N2CCCC2)cc1)C(F)(F)F (configuration not stated) | 0.119 | 0.22 | 0.0818 | – | – | – |
| Cc1[nH]c(C(=O)NC2CCN(c3ncc(C(=O)O)s3)CC2)c(Cl)c1Cl | – | 0.0293 | 0.197 | – | – | – |
| c1ccc2c(c1)CC(N1CCN(c3cccc4c3OCCO4)CC1)C2 | 0.0428 | 0.0262 | 0.0661 | – | – | – |
| CC(C)Cn1cnc2c(N)nc3ccccc3c21 [IMIQUIMOD] | 0.179 | – | 0.0075 | – | 2.52 | 63.1 µM (≈ 15.2 µg/mL) |
| Cc1nc(-c2c(F)cc(Cl)cc2-c2cnc([C@@H](C)NC(=O)[C@@](C)(O)C(F)(F)F)c(F)c2)no1 | 0.0358 | – | 0.0251 | – | – | – |
| NC1=NC(c2ccnc(C(F)(F)F)c2)(c2ccc(F)c(-c3cncnc3)c2)c2cccc(F)c21 (configuration not stated) | – | 0.0293 | 0.0409 | – | – | – |
| CCCn1c(=O)[nH]c2nc(-c3ccc(S(=O)(=O)N4CCN(Cc5ccc(Cl)cc5)CC4)cc3)[nH]c2c1=O | 0.0006 | – | 0.0007 | – | – | – |
| C[C@H](c1ccc(F)cc1CCCC(=O)O)N(c1cc(F)ccc1F)S(=O)(=O)c1ccc(Cl)cc1 | – | 0.001 | 0.005 | – | 3.1 | – |
| O=C1Nc2cc(C(F)(F)F)ccc2C1(O)c1cc(Cl)ccc1O (configuration not stated) | 0.0111 | – | 0.0219 | 0.0149 | – | – |
| CC(C)(C)OC(=O)NC[C@H]1CC[C@H](CNC(=O)c2cc(N3CCC(CCN4CC(O)C4)CC3)nc3ccccc23)CC1 | 0.0328 | 0.03 | 0.0139 | – | – | – |
| C[C@H](NC(=O)Cc1cc(F)cc(F)c1)C(=O)NC1C(=O)N(C)c2ccccc2-c2ccccc21 (some centres not stated) | – | 0.0099 | 0.0171 | – | 3.6 | – |
| COCC#Cc1cccc(C2(c3ccc(OC(F)F)cc3)N=C(N)N3CC(F)(F)CN=C32)c1 (configuration not stated) | – | 0.0111 | 0.013 | – | – | – |
| c1ccc([C@@H]([C@H](c2ccccc2)N2CCCCC2)N2CCCCC2)cc1 | 0.319 | 0.0988 | 0.262 | – | – | – |
| CC(C)[C@H](O)C(=O)N[C@@H](C)C(=O)N[C@@H]1C(=O)N(C)CCc2ccccc21 | 0.792 | 0.803 | 0.858 | – | – | – |
| O=C1COc2nccc(-c3ccccc3F)c2CN1Cc1cc(C(F)(F)F)cc(C(F)(F)F)c1 | 0.0081 | 0.0063 | 0.0095 | – | – | – |
| COc1ccc2cc(S(=O)(=O)N[C@H](CC(=O)N[C@H](Cc3ccc(CN4[C@H](C)CCC[C@@H]4C)cc3)C(=O)N(C)C(C)C)c3ccc4c(c3)OCO4)ccc2c1 | 0.0447 | 0.04 | 0.04 | – | – | – |
| CCCC[C@H](NC[C@@H]1Cc2cccc(c2)CCCCc2cc(cc(N(CCC)S(C)(=O)=O)c2)C(=O)N1)C(=O)NCC(C)C | – | 0.004 | 0.002 | – | – | – |
